# Reference: ChEMBL document CHEMBL3991601, “The target landscape of clinical kinase drugs” (Science, 2017)
# Activity calls are given as the source filed them. For most assays here, no stated cut-off is given here; in the data, actives have a measured Kd and inactives only a lower limit.
# Tests used:
# Heme oxygenase 2 = target: T1, Heme oxygenase 2 (Homo sapiens, UniProt P30519)
# T1 sequence (P30519 whole entry): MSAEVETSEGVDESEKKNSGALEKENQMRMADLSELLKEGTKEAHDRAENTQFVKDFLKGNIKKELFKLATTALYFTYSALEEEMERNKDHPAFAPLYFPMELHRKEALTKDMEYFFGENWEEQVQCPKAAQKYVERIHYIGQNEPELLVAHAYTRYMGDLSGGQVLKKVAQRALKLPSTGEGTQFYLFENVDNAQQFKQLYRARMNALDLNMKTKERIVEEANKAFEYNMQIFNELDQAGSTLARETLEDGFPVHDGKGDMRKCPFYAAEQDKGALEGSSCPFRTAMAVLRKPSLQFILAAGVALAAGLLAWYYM
# [1] = target: T2, Interleukin-1 receptor-associated kinase 4 (Homo sapiens, UniProt Q9NWZ3)
# T2 sequence (Q9NWZ3 whole entry): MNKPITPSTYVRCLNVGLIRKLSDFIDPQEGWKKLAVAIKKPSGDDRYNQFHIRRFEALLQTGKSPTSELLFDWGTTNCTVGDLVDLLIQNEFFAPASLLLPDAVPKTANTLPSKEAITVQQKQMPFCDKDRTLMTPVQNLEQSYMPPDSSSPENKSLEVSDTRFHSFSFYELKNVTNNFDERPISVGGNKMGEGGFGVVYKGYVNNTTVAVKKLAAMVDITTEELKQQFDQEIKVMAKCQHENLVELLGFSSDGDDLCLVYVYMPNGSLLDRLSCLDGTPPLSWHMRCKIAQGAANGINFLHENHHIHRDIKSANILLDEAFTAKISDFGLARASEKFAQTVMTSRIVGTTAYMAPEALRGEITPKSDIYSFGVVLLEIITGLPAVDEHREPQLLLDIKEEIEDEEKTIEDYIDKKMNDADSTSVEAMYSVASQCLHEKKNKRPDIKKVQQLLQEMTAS
# [2] = target: Adenylate kinase 2, mitochondrial (Homo sapiens, UniProt P54819)
# [3] = target: Casein kinase II subunit alpha' (Homo sapiens, UniProt P19784)
# [4] = target: Insulin-like growth factor 1 receptor (Homo sapiens, UniProt P08069)
# [5] = target: T3, Serine/threonine-protein kinase Nek3 (Homo sapiens, UniProt P51956)
# T3 sequence (P51956 whole entry): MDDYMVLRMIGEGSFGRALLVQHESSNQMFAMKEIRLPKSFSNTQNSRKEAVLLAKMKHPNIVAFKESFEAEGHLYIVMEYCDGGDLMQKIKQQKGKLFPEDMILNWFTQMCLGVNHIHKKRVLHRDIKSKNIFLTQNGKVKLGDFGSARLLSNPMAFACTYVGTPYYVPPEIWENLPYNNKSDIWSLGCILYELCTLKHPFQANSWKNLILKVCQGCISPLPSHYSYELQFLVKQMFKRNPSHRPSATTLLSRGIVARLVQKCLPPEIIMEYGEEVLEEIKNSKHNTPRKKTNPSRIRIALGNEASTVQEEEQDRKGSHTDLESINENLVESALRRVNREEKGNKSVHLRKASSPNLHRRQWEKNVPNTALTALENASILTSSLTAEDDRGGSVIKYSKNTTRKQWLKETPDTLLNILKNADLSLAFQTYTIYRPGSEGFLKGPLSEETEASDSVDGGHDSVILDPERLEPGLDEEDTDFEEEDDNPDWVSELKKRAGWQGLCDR
# [6] = target: T4, Serine/threonine-protein kinase ICK (Homo sapiens, UniProt Q9UPZ9)
# T4 sequence (Q9UPZ9 whole entry): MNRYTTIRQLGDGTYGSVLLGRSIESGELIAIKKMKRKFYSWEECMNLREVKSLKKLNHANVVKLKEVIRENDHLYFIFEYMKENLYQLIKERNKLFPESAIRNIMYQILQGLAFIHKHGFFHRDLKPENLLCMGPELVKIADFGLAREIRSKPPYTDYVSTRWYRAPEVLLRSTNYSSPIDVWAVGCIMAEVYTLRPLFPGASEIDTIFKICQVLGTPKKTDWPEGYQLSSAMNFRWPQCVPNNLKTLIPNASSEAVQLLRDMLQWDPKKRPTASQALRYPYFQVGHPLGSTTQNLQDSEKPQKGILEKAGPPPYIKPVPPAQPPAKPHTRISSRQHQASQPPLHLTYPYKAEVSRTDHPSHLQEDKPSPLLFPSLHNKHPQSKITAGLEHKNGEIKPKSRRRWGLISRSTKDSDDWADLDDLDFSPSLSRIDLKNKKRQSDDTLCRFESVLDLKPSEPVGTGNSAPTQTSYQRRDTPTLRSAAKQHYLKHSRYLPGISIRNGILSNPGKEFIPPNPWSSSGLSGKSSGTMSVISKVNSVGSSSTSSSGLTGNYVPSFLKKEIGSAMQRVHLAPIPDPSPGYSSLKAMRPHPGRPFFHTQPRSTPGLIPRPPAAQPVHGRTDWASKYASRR
# [7] = target: Dual specificity protein kinase CLK1 (Homo sapiens, UniProt P49759)
# Sequence of Dual specificity protein kinase CLK1 (P49759 whole entry): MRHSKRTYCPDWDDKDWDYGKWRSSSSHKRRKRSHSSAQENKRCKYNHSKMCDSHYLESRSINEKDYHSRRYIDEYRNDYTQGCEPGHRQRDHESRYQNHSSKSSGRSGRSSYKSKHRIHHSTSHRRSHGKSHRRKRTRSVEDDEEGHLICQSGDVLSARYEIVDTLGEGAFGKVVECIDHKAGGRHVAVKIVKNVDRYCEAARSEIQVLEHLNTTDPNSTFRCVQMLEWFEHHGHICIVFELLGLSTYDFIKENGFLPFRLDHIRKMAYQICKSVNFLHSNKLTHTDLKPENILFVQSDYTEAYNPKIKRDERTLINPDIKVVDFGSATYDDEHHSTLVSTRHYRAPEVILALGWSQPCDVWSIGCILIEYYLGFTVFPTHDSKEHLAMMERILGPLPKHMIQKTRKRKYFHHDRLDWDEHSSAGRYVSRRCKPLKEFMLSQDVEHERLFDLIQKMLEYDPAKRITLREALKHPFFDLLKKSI
# Sequence of Casein kinase II subunit alpha' (P19784 whole entry): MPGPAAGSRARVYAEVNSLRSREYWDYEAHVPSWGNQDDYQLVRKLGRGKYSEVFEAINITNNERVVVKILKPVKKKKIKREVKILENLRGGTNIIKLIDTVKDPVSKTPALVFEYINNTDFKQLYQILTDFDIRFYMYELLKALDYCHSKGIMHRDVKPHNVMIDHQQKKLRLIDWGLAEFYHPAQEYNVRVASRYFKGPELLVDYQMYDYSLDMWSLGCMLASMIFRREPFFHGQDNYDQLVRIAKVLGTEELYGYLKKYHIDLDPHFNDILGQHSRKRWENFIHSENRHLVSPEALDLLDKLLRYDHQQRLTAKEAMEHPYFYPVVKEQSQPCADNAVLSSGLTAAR
# Sequence of Insulin-like growth factor 1 receptor (P08069 31-736 limits assumed): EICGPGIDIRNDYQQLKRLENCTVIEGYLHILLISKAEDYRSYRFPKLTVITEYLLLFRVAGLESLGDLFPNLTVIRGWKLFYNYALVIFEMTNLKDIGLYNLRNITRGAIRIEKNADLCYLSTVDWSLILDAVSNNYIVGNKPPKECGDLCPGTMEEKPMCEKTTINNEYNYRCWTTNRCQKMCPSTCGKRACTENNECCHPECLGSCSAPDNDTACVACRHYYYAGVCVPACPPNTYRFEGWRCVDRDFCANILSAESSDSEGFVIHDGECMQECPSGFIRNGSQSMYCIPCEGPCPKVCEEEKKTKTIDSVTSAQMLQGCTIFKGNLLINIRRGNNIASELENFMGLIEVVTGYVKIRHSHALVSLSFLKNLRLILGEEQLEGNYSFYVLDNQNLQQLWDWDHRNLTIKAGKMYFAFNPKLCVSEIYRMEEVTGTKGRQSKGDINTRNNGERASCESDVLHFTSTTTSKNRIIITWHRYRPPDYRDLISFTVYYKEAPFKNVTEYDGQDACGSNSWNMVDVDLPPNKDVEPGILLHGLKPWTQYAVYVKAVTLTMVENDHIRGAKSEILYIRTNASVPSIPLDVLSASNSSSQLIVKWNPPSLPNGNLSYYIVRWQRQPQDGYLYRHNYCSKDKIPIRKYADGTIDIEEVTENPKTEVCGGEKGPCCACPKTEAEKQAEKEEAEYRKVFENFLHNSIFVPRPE
# Sequence of Insulin-like growth factor 1 receptor (P08069 741-1367 limits assumed): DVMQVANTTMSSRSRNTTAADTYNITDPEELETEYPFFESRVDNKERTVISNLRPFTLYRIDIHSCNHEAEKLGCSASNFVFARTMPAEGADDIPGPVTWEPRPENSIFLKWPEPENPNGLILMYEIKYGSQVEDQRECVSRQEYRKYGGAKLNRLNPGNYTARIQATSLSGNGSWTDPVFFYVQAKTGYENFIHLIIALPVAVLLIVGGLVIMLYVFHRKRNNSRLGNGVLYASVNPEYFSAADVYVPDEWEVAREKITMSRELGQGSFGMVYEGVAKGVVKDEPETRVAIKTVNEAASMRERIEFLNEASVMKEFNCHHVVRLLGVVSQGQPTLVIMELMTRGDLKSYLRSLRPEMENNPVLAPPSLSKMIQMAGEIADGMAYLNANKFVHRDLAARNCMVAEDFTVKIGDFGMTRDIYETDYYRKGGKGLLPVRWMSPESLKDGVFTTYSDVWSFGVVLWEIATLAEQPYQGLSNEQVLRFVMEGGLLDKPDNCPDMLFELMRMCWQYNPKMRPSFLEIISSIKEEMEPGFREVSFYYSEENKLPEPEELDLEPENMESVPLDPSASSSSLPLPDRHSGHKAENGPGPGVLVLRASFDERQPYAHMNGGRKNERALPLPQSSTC
Kd (Heme oxygenase 2),Kd [1],Kd [2],Kd [3],Kd [5],Kd [7],Compound,Kd [4],Kd [6]
> 30 µM (inactive),> 30 µM (inactive),> 30 µM (inactive),> 30 µM (inactive),> 30 µM (inactive),,C[C@@H](Oc1cc(C(=O)Nc2ccc(C(=O)N3CCN(C)CC3)cc2)nnc1N)c1c(Cl)ccc(F)c1Cl,> 30 µM (inactive),
> 30 µM (inactive),> 30 µM (inactive),> 30 µM (inactive),> 30 µM (inactive),> 30 µM (inactive),,C[C@H]1CNCCCN1S(=O)(=O)c1cccc2cncc(F)c12,> 30 µM (inactive),> 30 µM (inactive)
> 30 µM (inactive),> 30 µM (inactive),> 30 µM (inactive),> 30 µM (inactive),> 30 µM (inactive),> 30 µM (inactive),CCNC(=O)C#Cc1ccc2c(c1)NC(=O)/C2=C(\Nc1ccc(CN(C)C)cc1)c1ccccc1,> 30 µM (inactive),
> 30 µM (inactive),> 30 µM (inactive),> 30 µM (inactive),> 30 µM (inactive),> 30 µM (inactive),,Nc1ncnc2c1c(-c1cccc(OCc3ccccc3)c1)cn2[C@H]1C[C@@H](CN2CCC2)C1 [AEW-541],,> 30 µM (inactive)
> 30 µM (inactive),,> 30 µM (inactive),,> 30 µM (inactive),> 30 µM (inactive),COc1cc(Nc2ncc3c(n2)-c2ccc(Cl)cc2C(c2c(F)cccc2OC)=NC3)ccc1C(=O)O [ALISERTIB],,> 30 µM (inactive)
> 30 µM (inactive),,> 30 µM (inactive),,,,CNC(=O)c1ccccc1Sc1ccc2c(/C=C/c3ccccn3)n[nH]c2c1 [AXITINIB],,
> 30 µM (inactive),> 30 µM (inactive),> 30 µM (inactive),> 30 µM (inactive),> 30 µM (inactive),1.06 µM,Cc1cc(Nc2ncc(Cl)c(Nc3ccccc3S(=O)(=O)C(C)C)n2)c(OC(C)C)cc1C1CCNCC1 [CERITINIB],,> 30 µM (inactive)
,> 30 µM (inactive),> 30 µM (inactive),> 30 µM (inactive),> 30 µM (inactive),,Cc1nc2cc(-n3ncc(C(=O)c4cc5ccccc5[nH]4)c3N)ccc2[nH]1 [FGFR INHIBITOR DEBIO 1347],> 30 µM (inactive),
> 30 µM (inactive),,> 30 µM (inactive),,,,C[C@@H](Oc1cc(-n2cnc3ccc(CN4CCN(C)CC4)cc32)sc1C(N)=O)c1ccccc1C(F)(F)F [GSK-461364],,
> 30 µM (inactive),1.47 µM (active),> 30 µM (inactive),> 30 µM (inactive),> 30 µM (inactive),,CN(C[C@@H]1COCCO1)S(=O)(=O)Nc1ccc2ccc3ncc(-c4cnn(C)c4)cc3c(=O)c2c1 [MK-2461],> 30 µM (inactive),
> 30 µM (inactive),,> 30 µM (inactive),2.1 µM (active),> 30 µM (inactive),> 30 µM (inactive),Cc1[nH]c(/C=C2\C(=O)Nc3ccccc32)c(C)c1CCC(=O)O [ORANTINIB],,
> 30 µM (inactive),,> 30 µM (inactive),> 30 µM (inactive),> 30 µM (inactive),> 30 µM (inactive),NC(=O)c1c(OCc2c(F)cc(Br)cc2F)nsc1NC(=O)NCCCCN1CCCC1 [OSI-632],,> 30 µM (inactive)
> 30 µM (inactive),,> 30 µM (inactive),2.64 µM (active),> 30 µM (inactive),> 30 µM (inactive),CC(=O)NCC(=O)N1[C@@H]2CC[C@H]1c1ccc(Nc3ncc(C(F)(F)F)c(NC4CCC4)n3)cc12 [PF-03814735],,> 30 µM (inactive)
> 30 µM (inactive),,> 30 µM (inactive),,,,O=C(NOCCO)c1cc(CN2OCCCC2=O)c(F)c(F)c1Nc1ccc(I)cc1F [RO-4987655],,
> 30 µM (inactive),,> 30 µM (inactive),,29.9 µM (active),,N#CC[C@H](C1CCCC1)n1cc(-c2ncnc3[nH]ccc23)cn1 [RUXOLITINIB],,
,> 30 µM (inactive),> 30 µM (inactive),> 30 µM (inactive),> 30 µM (inactive),,Cn1ncc(Cl)c1-c1cc(C(=O)N[C@H](CN)Cc2ccc(F)c(F)c2)oc1Cl [UPROSERTIB],> 30 µM (inactive),
> 30 µM (inactive),> 30 µM (inactive),> 30 µM (inactive),2.44 µM (active),> 30 µM (inactive),> 30 µM (inactive),CC(C)c1cc(CNc2nc(Nc3cc(C4CC4)[nH]n3)cc(N3CCN(C)CC3)n2)on1 [XL-228],,> 30 µM (inactive)

Compound,Kd (Heme oxygenase 2),Kd [1],Kd [2],Kd [3],Kd [5],Kd [7],Kd [4],Kd [6]
CC(=O)c1cnc2ccc(-c3cc(Cl)c(O)c(Cl)c3)nc2c1N[C@H]1CC[C@H](CN(C)C)CC1,> 30 µM (inactive),,> 30 µM (inactive),0.01 µM (active),> 30 µM (inactive),0.011 µM (active),> 30 µM (inactive),> 30 µM (inactive)
COc1cc([C@@H]2c3cc4c(cc3[C@H](O)[C@H]3COC(=O)[C@@H]23)OCO4)cc(OC)c1OC [AXL-1717],> 30 µM (inactive),> 30 µM (inactive),> 30 µM (inactive),> 30 µM (inactive),> 30 µM (inactive),,> 30 µM (inactive),> 30 µM (inactive)
NC(=O)Nc1cc(-c2cccc(F)c2)sc1C(=O)N[C@H]1CCCNC1 [AZD-7762],> 30 µM (inactive),,> 30 µM (inactive),3.15 µM (active),> 30 µM (inactive),> 30 µM (inactive),> 30 µM (inactive),> 30 µM (inactive)
CC(C)(C)c1nc(-c2cccc(NS(=O)(=O)c3c(F)cccc3F)c2F)c(-c2ccnc(N)n2)s1 [DABRAFENIB],> 30 µM (inactive),> 30 µM (inactive),> 30 µM (inactive),,> 30 µM (inactive),> 30 µM (inactive),,> 30 µM (inactive)
Cn1cc(C2=C(c3cn(C4CCN(Cc5ccccn5)CC4)c4ccccc34)C(=O)NC2=O)c2ccccc21 [ENZASTAURIN],> 30 µM (inactive),,> 30 µM (inactive),,,,,
O=C(Nc1nc2cccc(-c3ccc(CN4CCS(=O)(=O)CC4)cc3)n2n1)C1CC1 [FILGOTINIB],> 30 µM (inactive),> 30 µM (inactive),> 30 µM (inactive),> 30 µM (inactive),> 30 µM (inactive),,> 30 µM (inactive),> 30 µM (inactive)
O=C(Nc1cc(C(F)(F)F)cc(C(F)(F)F)c1)c1cc(Cl)ccc1O [IMD-0354],> 30 µM (inactive),,> 30 µM (inactive),> 30 µM (inactive),> 30 µM (inactive),> 30 µM (inactive),> 30 µM (inactive),> 30 µM (inactive)
Cc1cc(Nc2ncnc3ccc(NC4=NC(C)(C)CO4)cc23)ccc1Oc1ccn2ncnc2c1 [TUCATINIB],> 30 µM (inactive),> 30 µM (inactive),> 30 µM (inactive),> 30 µM (inactive),> 30 µM (inactive),,> 30 µM (inactive),> 30 µM (inactive)
